Experimental data as given in patent US20260232827A1, “ANTIBODY-DRUG CONJUGATES TARGETING NAPI2B AND METHODS OF USE” (Zymeworks BC Inc., priority 2023, published 2026).

Experiments:
human NaPi2b = target: T1, human NaPi2b (Homo sapiens, UniProt O95436); experiment: Flow cytometry binding to transfected HEK293-6e cells; settings: huNaPi2b (full length human NaPi2b), 24 hours at 4° C.
T1 construct: Full length human NaPi2b; host or cells: HEK293-6e
T1 sequence (O95436 1-690): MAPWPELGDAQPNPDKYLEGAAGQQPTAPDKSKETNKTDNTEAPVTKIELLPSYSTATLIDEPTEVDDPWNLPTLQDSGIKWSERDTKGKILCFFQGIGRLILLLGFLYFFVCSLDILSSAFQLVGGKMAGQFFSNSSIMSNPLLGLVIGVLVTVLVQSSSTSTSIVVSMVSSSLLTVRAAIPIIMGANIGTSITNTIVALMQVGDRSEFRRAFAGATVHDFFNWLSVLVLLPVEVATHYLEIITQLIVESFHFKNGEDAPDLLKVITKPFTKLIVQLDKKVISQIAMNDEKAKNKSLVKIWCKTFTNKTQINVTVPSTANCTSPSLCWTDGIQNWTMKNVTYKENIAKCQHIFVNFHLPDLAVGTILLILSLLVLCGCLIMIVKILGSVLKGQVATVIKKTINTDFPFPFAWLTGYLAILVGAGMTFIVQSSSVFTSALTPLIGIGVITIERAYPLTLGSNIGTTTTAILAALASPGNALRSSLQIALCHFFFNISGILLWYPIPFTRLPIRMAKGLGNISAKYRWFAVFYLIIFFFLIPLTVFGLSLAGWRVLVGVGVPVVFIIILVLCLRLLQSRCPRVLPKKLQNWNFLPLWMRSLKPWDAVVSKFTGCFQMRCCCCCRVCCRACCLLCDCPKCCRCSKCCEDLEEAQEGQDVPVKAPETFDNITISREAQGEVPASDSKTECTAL
Method: The binding cross-reactivity of humanized antibody variant v29456 to human, cynomolgus and mouse NaPi2b was assessed by flow cytometry using HEK293-6e transfected cells.
Following staining and washing, fluorescence was detected by flow cytometry on BD LSRFortessa™ Cell Analyzer (BD Biosciences, Franklin Lake, NJ) with 10,000 minimum events collected per well. The AF647/APC-A GeoMean (fluorescence signal geometric mean, proportional to anti-Human AF647 binding) was calculated for the live singlet cell population for each primary antibody using FlowJo™ v8 software (BD Biosciences, Franklin Lake, NJ). The Bmax and Kd of each primary antibody were calculated using GraphPad Prism Version 9 (GraphPad Software, San Diego, CA)
(§1) Following incubation and washing, fluorescence was detected by flow cytometry on a BD LSRFortessa™ Cell Analyzer (BD Biosciences, Franklin Lake, NJ) with 1,000 minimum events collected per well.
as §1, §1

[1] = test system: Construct 3 (chimeric human NaPi2b, region 304-321); experiment: Binding region mapping, flow cytometry on transfected HEK293-6e cells; settings: 24 hours at 4° C.
Excerpt: (§2) NaPi2b constructs containing deletions in the main extracellular loop of human NaPi2b, as well as chimeric NaPi2b/NaPi2c constructs concerning this main loop, were generated.
(§3) As a complementary strategy, two additional constructs were designed in which the relevant region of the main loop was deleted such as to mimic NaPi2c/NaPi2a main extracellular loop (Constructs 6-7 in Table 52.1). Clones were generated at GenScript Biotech (Piscataway, NJ).
(§4) Constructs were expressed in HEK293-6e cells as follows. Cells were maintained under standard culture conditions (37° C./5% CO2) with shaking at 110 rpm for suspension and cultured in FreeStyle™ 293 Expression Medium (Thermo Fisher Scientific, Waltham, MA) supplemented with 1% fetal bovine serum (Thermo Fisher Scientific, Waltham, MA) and 1× Penicillin-Streptomycin (Thermo Fisher Scientific, Waltham, MA). Cells were transfected with clones expressing the constructs listed in Table 52.1, at 1 μg of DNA per 1 million cells, using 293Fectin™ Transfection Reagent (Thermo Fisher Scientific, Waltham, MA) and Opti-MEM™ I Reduced Serum Medium (Thermo Fisher Scientific, Waltham, MA), and incubated for 24 hours under standard culture conditions (37° C./5% CO2/110 rpm). Following transfection, cells were seeded at 50,000 cells/well in conical-bottom 96-well plates and treated with a serial dilution of test antibody for 24 hours at 4° C. to prevent internalization. Cells were treated with final concentrations of all humanized antibodies of 200, 20, or 2 nM. Cells were treated with final concentrations of the reference anti-NaPi2a rabbit antibody of 50, 5, or 0.5 nM. […] Following incubation and washing, fluorescence was detected by flow cytometry on a BD LSRFortessa™ Cell Analyzer (BD Biosciences, Franklin Lake, NJ) with 1,000 minimum events collected per well. […] Background-subtracted AF647 Mean Fluorescence Intensity (MFI) values were calculated by subtracting the average MFI of three technical replicates of unstained (no primary antibody) cells.

[2] = test system: Construct 4 (chimeric human NaPi2b, region 341-358); experiment: as above; settings: 24 hours at 4° C.
Excerpt: as §2, §3, §4

[3] = target: T2, Construct 6 (human NaPi2b deletion, region 317-333) (Homo sapiens, UniProt O95436, DEL317-333); experiment: as above; settings: 24 hours at 4° C.
T2 construct: host or cells: HEK293-6e
T2 sequence (O95436 with tags, fused parts or gaps DEL317-333): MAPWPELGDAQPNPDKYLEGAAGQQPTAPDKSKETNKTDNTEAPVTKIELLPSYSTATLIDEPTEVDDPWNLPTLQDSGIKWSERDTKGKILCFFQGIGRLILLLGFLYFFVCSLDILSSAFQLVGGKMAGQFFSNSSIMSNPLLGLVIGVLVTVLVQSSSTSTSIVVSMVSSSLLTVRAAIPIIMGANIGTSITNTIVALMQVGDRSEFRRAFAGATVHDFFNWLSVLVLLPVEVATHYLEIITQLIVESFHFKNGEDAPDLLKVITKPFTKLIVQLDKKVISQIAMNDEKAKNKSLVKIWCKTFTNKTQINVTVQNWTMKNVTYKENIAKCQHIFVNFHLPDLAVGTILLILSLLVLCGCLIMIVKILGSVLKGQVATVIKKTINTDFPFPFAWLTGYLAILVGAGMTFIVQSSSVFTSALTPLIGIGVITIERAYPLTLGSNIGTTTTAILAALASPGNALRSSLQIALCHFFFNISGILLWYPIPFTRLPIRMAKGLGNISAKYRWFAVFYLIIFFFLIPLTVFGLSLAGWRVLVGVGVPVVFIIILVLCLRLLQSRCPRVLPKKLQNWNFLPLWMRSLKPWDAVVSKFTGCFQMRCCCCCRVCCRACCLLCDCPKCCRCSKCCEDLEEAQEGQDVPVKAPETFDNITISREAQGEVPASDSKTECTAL
Excerpt: as §2, §3, §4

[4] = test system: Construct 5 (chimeric human NaPi2b, region 304-348); experiment: as above; settings: 24 hours at 4° C.
Method: as §1

Question: palivizumab [palivizumab (v21995)] was tested. Which “Background-Subtracted AF647 Mean Fluorescence Intensity” value (human NaPi2b; antibody 2.0 nM) did it give?
Answer: Its value is -22.

Question: And the “Background-Subtracted AF647 Mean Fluorescence Intensity” value (human NaPi2b; antibody 20.0 nM)?
Answer: Its value is 13.

Question: What about the “Background-Subtracted AF647 Mean Fluorescence Intensity” value (human NaPi2b; antibody 200.0 nM) of the same substance?
Answer: The value was 19.

Question: What about the “Background-Subtracted AF647 Mean Fluorescence Intensity” value ([1]; antibody 2.0 nM) of the same substance?
Answer: Its value is 19.

Question: What about the “Background-Subtracted AF647 Mean Fluorescence Intensity” value ([1]; antibody 20.0 nM) of the same substance?
Answer: Its value is 39.

Question: What about the “Background-Subtracted AF647 Mean Fluorescence Intensity” value ([1]; antibody 200.0 nM) of the same substance?
Answer: The value was -5.

Question: What about the “Background-Subtracted AF647 Mean Fluorescence Intensity” value ([2]; antibody 2.0 nM) of the same substance?
Answer: Its value is 1.

Question: What about the “Background-Subtracted AF647 Mean Fluorescence Intensity” value ([2]; antibody 20.0 nM) of the same substance?
Answer: The value was 22.

Question: And the “Background-Subtracted AF647 Mean Fluorescence Intensity” value ([2]; antibody 200.0 nM)?
Answer: The value was 12.

Question: And the “Background-Subtracted AF647 Mean Fluorescence Intensity” value ([3]; antibody 2.0 nM)?
Answer: The value was 11.

Question: And the “Background-Subtracted AF647 Mean Fluorescence Intensity” value ([3]; antibody 20.0 nM)?
Answer: Its value is 1.

Question: What about the “Background-Subtracted AF647 Mean Fluorescence Intensity” value ([3]; antibody 200.0 nM) of the same substance?
Answer: Its value is 2.

Question: And the “Background-Subtracted AF647 Mean Fluorescence Intensity” value ([4]; antibody 2.0 nM)?
Answer: Its value is -2.

Question: What about the “Background-Subtracted AF647 Mean Fluorescence Intensity” value ([4]; antibody 20.0 nM) of the same substance?
Answer: Its value is 123.

Question: What about the “Background-Subtracted AF647 Mean Fluorescence Intensity” value ([4]; antibody 200.0 nM) of the same substance?
Answer: Its value is 40.
